How the values were obtained:
Test in all cases: AUC of viability dose-response curve (% viability x log10 dose units); higher = less sensitive
Details in all cases: 48 h
[1] = tested on: P12-Ichikawa
Summary of the method: (§1)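 Leukemia cells adapted to each medium were seeded in 1536-well plates (500 or 1000 cells/well). They were dosed with library compounds in DMSO at 11 threefold doses, 47 μM to 0.79 nM, for 48 h at 37°C. CellTiter-Glo One luminescence was normalised per plate to DMSO and cell-free wells. Area under the curve was integrated by trapezoidal rule over log10 doses on a four-parameter log-logistic fit; curves exceeding full viability were scaled and curves failing quality control removed.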

[2] = tested on: NOMO1
Summary of the method: as §1

[3] = tested on: SEM cells
Summary of the method: as §1

[4] = RPMI 5 mM glucose + 10% dialyzed FBS

Compound	AUC of viability dose-response curve ([1]; HPLM + 10% dialyzed FBS)	AUC of viability dose-response curve ([1]; RPMI 5 mM glucose + 10% FBS)	AUC of viability dose-response curve [1, 4]	AUC of viability dose-response curve ([2]; HPLM + 10% dialyzed FBS)	AUC of viability dose-response curve ([2]; RPMI 5 mM glucose + 10% FBS)	AUC of viability dose-response curve [2, 4]	AUC of viability dose-response curve ([3]; HPLM + 10% dialyzed FBS)	AUC of viability dose-response curve ([3]; RPMI 5 mM glucose + 10% FBS)	AUC of viability dose-response curve [3, 4]
COc1ccc(Nc2cc(-c3cnc(N)nc3)nc(N3CCOCC3)n2)cn1	433	387	399	373	375	361	398	418	389
CCCCCCCCCCCCCCCCCCOP(=O)([O-])OC1CC[N+](C)(C)CC1	470	462	465	469	470	467	455	468	442
O=c1[nH]cnc2c1ncn2[C@H]1CC[C@@H](CO)O1	468	463	444	447	420	431	460	409	409
NC(=O)c1cccc(N)c1	452	451	454	471	454	465	436	384	442
CN(C)c1ccc2cc(C(=O)N[C@@H](CCCNC(=N)CCl)C(=O)NCc3ccccc3)ccc2c1	451	446	449	443	447	451	450	434	444
CC(C)(C)NC(=O)[C@@H]1CN(Cc2cccnc2)CCN1C[C@@H](O)C[C@@H](Cc1ccccc1)C(=O)N[C@H]1c2ccccc2C[C@H]1O.O=S(=O)(O)O	463	463	455	472	461	442	439	455	454
OCCCNc1cc(-c2ccnc(Nc3cccc(Cl)c3)n2)ccn1	308	294	295	264	258	262	249	260	254
O=C(NNC(=O)c1ccc(CN[S+](=O)([O-])c2ccc(F)c(Cl)c2)cc1)c1ccccc1	460	466	470	468	437	438	463	449	423
Cc1ccc(C(=O)c2cc(O)c(O)c([N+](=O)[O-])c2)cc1	468	449	434	447	424	456	435	466	434
CCCCCCCCc1ccc(CCC(N)(CO)CO)cc1	432	407	429	353	433	401	441	452	454
CN[C@@H]1C[C@H]2O[C@@](C)([C@@H]1OC)n1c3ccccc3c3c4c(c5c6ccccc6n2c5c31)C(=O)N[C@H]4O	280	249	271	279	264	289	220	226	232
O=C1NC(=O)/C(=C/c2cccc(C(F)(F)F)c2)S1	471	466	453	448	458	463	463	463	467
COc1cc(-c2nn(C3CCC(N4CCN(C(C)=O)CC4)CC3)c3ncnc(N)c23)ccc1NC(=O)c1cc2ccccc2n1C (centres undefined)	449	465	460	443	450	460	472	468	468
CC(C)C[C@H](NC(=O)[C@H](Cc1ccccc1)NC(=O)c1cnccn1)B(O)O	173	173	171	182	171	181	138	147	129
CCNc1cc(NC2CCC(O)CC2)nc(Nc2ccc3c(ccn3Cc3ccccc3)c2)n1 (centres undefined)	474	467	469	471	472	464	471	471	466
COC(=O)[C@@H](N)CCCNC(=N)N[N+](=O)[O-]	452	462	452	467	427	461	426	444	432
O=C(CCCCCCC(=O)Nc1ccccc1)NO	378	368	367	406	412	427	370	372	369
N[C@@H](CC(=O)N1CCn2c(nnc2C(F)(F)F)C1)Cc1cc(F)c(F)cc1F	463	453	445	451	417	461	448	453	449

Compound	AUC of viability dose-response curve ([1]; HPLM + 10% dialyzed FBS)	AUC of viability dose-response curve ([1]; RPMI 5 mM glucose + 10% FBS)	AUC of viability dose-response curve [1, 4]	AUC of viability dose-response curve ([2]; HPLM + 10% dialyzed FBS)	AUC of viability dose-response curve ([2]; RPMI 5 mM glucose + 10% FBS)	AUC of viability dose-response curve [2, 4]	AUC of viability dose-response curve ([3]; HPLM + 10% dialyzed FBS)	AUC of viability dose-response curve ([3]; RPMI 5 mM glucose + 10% FBS)	AUC of viability dose-response curve [3, 4]
CC[C@@]1(O)C[C@H](O[C@H]2C[C@H](N(C)C)[C@H](O[C@H]3C[C@H](O)[C@H](O[C@H]4CCC(=O)[C@H](C)O4)[C@H](C)O3)[C@H](C)O2)c2c(cc3c(c2O)C(=O)c2c(O)cccc2C3=O)[C@H]1C(=O)OC	463	417	425	426	430	410	217	225	200
COC1=CC2=C(C=C1OC)[C@H]3[C@@H](CO2)OC4=C(C=CC5=C4\C=C/C(C)(C)O5)C3=O	399	327	341	402	404	406	409	357	326
CO[C@H]1C[C@@H]2CC[C@@H](C)[C@@](O)(O2)C(=O)C(=O)N2CCCC[C@H]2C(=O)O[C@H]([C@H](C)C[C@@H]2CC[C@@H](OCCO)[C@H](OC)C2)CC(=O)[C@H](C)/C=C(/C)[C@@H](O)[C@@H](OC)C(=O)[C@H](C)C[C@H](C)\C=C/C=C\C=C/1C	420	329	362	393	421	370	240	234	233
CC(C)(C)c1cc(C(=O)O)c(NC(=O)Nc2ccc3[nH]ncc3c2)s1	433	426	438	427	418	422	442	447	440
CC(NCc1ccc2c(c1)[nH]/c(=N\C(=O)c1ccc(-c3cn[nH]c3)s1)n2CC(C)(C)O)C(C)(C)C (centres undefined)	350	349	345	321	358	347	177	194	170
COc1cccc2c1C(=O)c1c(O)c3c(c(O)c1C2=O)C[C@@](O)(C(C)=O)C[C@@H]3O[C@H]1C[C@H](N)[C@H](O)[C@H](C)O1	274	264	263	265	262	259	192	190	209
COc1ccnc(C[S+]([O-])c2nc3cc(OC(F)F)ccc3[nH]2)c1OC (centres undefined)	474	456	461	459	464	474	435	431	461
CN(C)CCN(Cc1ccc(Cl)cc1)c1ccccn1.Cl	462	410	391	419	430	418	404	456	452
COc1cc2ncnc(Nc3cccc(Br)c3)c2cc1OC	451	462	464	475	447	460	447	460	448
NC(=O)Nc1cc(-c2ccc(CN3CCOCC3)cc2)sc1C(N)=O	236	246	266	369	331	338	262	240	240
CNCC(O)C(O)C(O)C(O)CO.O=C(O)c1ccc(-c2cc3cccnc3c(-c3ccc4nonc4c3)n2)cc1	473	470	468	467	464	469	472	472	459
Oc1cc(O)cc(/C=C/c2ccc(O)c(O)c2)c1	449	452	444	442	416	431	413	430	390
O=C1N\2CCC3=C([NH]C4=C3C=CC=C4)C2=N/C5=CC=CC=C15	465	457	454	465	461	466	461	456	451
CN[S+](=O)([O-])CCc1ccc2[nH]cc(C3CCN(C)CC3)c2c1	460	460	466	454	435	450	428	452	432
CC(C)NCC(O)COc1ccc(CCOCC2CC2)cc1 (centres undefined)	474	469	461	427	453	448	470	458	468
Cc1cn(CCN2CCN(c3ccccc3-c3cc(C#N)cc(C(=O)NCCCN4CCCC4)c3)CC2)c2ccccc12	402	409	409	406	424	421	407	401	424
C[N+](C)([O-])CCNc1ccc(NCC[N+](C)(C)[O-])c2c1C(=O)c1c(O)ccc(O)c1C2=O	354	302	305	383	365	391	298	272	281
CCN(C)C(=O)Oc1cccc([C@H](C)N(C)C)c1	452	458	465	451	468	474	463	432	452

From the supplement of paper PMC11451515
